Measurements: patent US9464308B2, “Method for transcriptional amplification of nucleic acids combining steps of different temperatures” (priority 2011, dated 2016)
Read-outs that look alike come from different tables or passages of the source.

Tests used:
T7 RNA polymerase [1] = molecular target: T1, T7 RNA polymerase (Escherichia phage T7, UniProt P00573); assay: Thermal denaturation of T7 RNA polymerase (T7 Tm) by UV spectrophotometry; type: physicochemical; conditions: for ΔTm: T7 RNA polymerase at 0.05 mg/ml, PBS 150 mM pH 7.5, versus control without additive (T7 Tm 48.5° C.), Sorbitol 1M, Sucrose 1M, Lactose 0.35M, Raffmose 0.085M, D-Turanose 0.15M; for denaturation temperature of the enzyme (in words): heating T7 RNA polymerase in the presence of the additive
T1 construct: purchased bioMérieux, Marcy l'Etoile, France
Protocol: T7 RNA polymerase was chosen as model enzyme since it is the most sensitive to thermal denaturation; the T7 Tm without additive is 48.5° C.
A UV spectrophotometry technique is used to measure the T7 Tm values. The change in the absorbance of the protein at λ=280 nm as a function of temperature is measured. When the enzyme is heated, the solution becomes cloudy, and aggregates form which correspond to the denatured form. The Tm corresponds to the temperature for which there is 50% of native form and 50% of denatured form (first derivative of the curve absorbance=f(temperature)).
In a polypropylene flask, 4 ml of 300 mM PBS phosphate buffer (Aldrich P-4417, St Quentin Fallavier, France) are mixed with 12μl of T7 RNA polymerase enzyme (bioMérieux, Marcy l'Etoile, France) at 17 mg/ml, i.e. a final protein concentration of 0.05 mg/ml. 500 μl of T7 RNA polymerase solution at 0.05 mg/ml and 500 μl of a concentrated solution of additives (Aldrich, St Quentin Fallavier, France) or of 300 mM PBS for the control are then placed in a quartz cuvette for UV spectrophotometry. After homogenization, the change in absorbance at λ=280 nm is measured as a function of temperature, between 30 and 65° C. at 1° C./min, in order to determine the T7 Tm as previously described (Cary UV spectrophotometer, Varian, Les Ulis, France).

T7 RNA polymerase [2] = molecular target: T1, T7 RNA polymerase; assay: Thermostability (T1/2) at 46° C. of T7 RNA polymerase activity; type: biochemical; conditions: environment specific to NASBA, sorbitol 1.48 M
Protocol: In this example, the values of T1/2 of T7 RNA polymerase are determined in the presence or absence of polyols. A description of the measurement method is given below, as are the various reagents used.
Mix buffers B, C and D according to the following proportions with the following Nuclisens™ HIV-1 2.0 reagents (ref.: 285033, bioMérieux, Marcy l'Etoile, France) (for eight reactions): • 36.08 μl buffer A • 6.32 μl buffer B • 25.36 μl buffer C • 173.6 μl buffer D • eight “Nuclisens™ HIV-1 2.0 accusphere reagent” • 960 μl of “Nuclisens™ HIV-1 2.0 diluent reagent”. […]
• 1. The enzymes to be evaluated are diluted in such a way as to have a volumetric activity of 109 kU/ml. • 2. A volume of 20 μl of the enzyme to be evaluated is diluted in 840 μl of solution W1. • 3. 114 μl of the compound to be evaluated are then added to 193.5 μl of enzymatic mix described in point 2 above. • 4. […] 20 μl of solution S are added to 5 n1 of this preincubated mixture in order to measure the rate of increase in fluorescence between 5 and 10 minutes, associated with the residual activity of the enzyme. • 6. […]

HIV-1 type B transcript [3] = assay: NASBA HIV-1 2.0 amplification test at 46° C., functional screening of thermostabilizing compounds; type: biochemical; conditions: 7.5 cps/reaction HIV-1B transcript, lactose 0.21 M, sorbitol 1.2 M, sucrose 0.6 M
Protocol: The FIG. 1 represent the functional screening of thermostabilizing compounds during NASBA amplifications at 46° C. in the presence of 7.5 cps/reaction of HIV-1B transcript (seven replicas per screening), with in:
A set of compounds with thermostabilizing properties or assumed to have such properties was evaluated in a NASBA HIV-1 2.0 amplification test on a Nuclisens EasyQ™ amplification platform (bioMérieux, Marcy l'Etoile, France) according to the supplier's recommendations. 5 cps to 30 cps of an HIV-1 type B transcript were used as target in each reaction in the presence or absence of the compound to be evaluated.
The obtaining of an amplification in the presence of the compound at a temperature of 46° C. makes it possible to validate the compound as compatible and thermostabilizing for the NASBA reaction.

HIV-1 type B transcript [4] = assay: Sensitivity of NASBA detection at 46° C. without target denaturation phase; type: biochemical; conditions: HIV-1 type B transcript at 5 cps/test, no target denaturation phase, N=24
From the text: FIG. 4 gives the measurement of the sensitivity (%) obtained in the presence of various thermostabilizing compounds during an HIV-1 type B NASBA amplification at 5 cps/test and without target denaturation phase (N=24).
The objective of this is to simplify the method by virtue of the simultaneous addition of the targets to the enzyme and amplification reagent mixes.
A Nuclisens™ HIV-1 2.0 amplification kit (ref.: 285033, bioMérieux, Marcy l'Etoile, France) was used to carry out the amplification experiments in the presence of trehalose, sucrose or sorbitol at the detection limit with an HIV-1 type B transcript at 5 cps/test. Each amplification is replicated 24 times in order to estimate the sensitivity of the test in the presence of thermostabilizing compounds at 46° C.
The sensitivity is expressed as percentage of positive signals determined by the EasyQ™ analysis system, relative to the total number of replicates.

T7 RNA polymerase [5] = molecular target: T1, T7 RNA polymerase; assay: Maximum preincubation temperature preserving T7 RNA polymerase activity (3 min preincubation); type: biochemical; conditions: 1.4 M sorbitol
Protocol: FIG. 2 describes the residual activity (%) of T7 RNA polymerase after 3 minutes of preincubation at various temperatures and in the presence of various thermostabilizing compounds.
In this example, the maximum temperature that the T7 RNA polymerase could withstand for a preincubation of 3 minutes in the presence of thermostabilizing compounds is determined.
This step can be likened to a target predenaturation or preincubation phase. The protocol used in this example is similar to that of example 2, with the exception of the fact that the temperatures are variable and that the preincubation time was fixed at 3 minutes.

RNAse H = assay: Residual RNAse H activity after preincubation at various temperatures, with or without 0.4 M trehalose; type: biochemical; conditions: 25 minutes of preincubation at various temperatures
Protocol: FIG. 3B describes the residual activity of RNAse H after 25 minutes of preincubation at various temperatures, with or without 0.4 M trehalose.
(§1) Description of the method for measuring the T7 RNA polymerase, RNAse H and AMV-RT activities for example 5: • 1. The T7 RNA polymerase, RNAse H and AMV-RT enzymes are used at volumetric activities of 109 kU/ml, 1 kU/ml and 25 kU/ml respectively. • 2. The T7 RNA polymerase, RNAse H and AMV-RT enzymes are diluted in the solution W1 of example 3 according to the ratios 1/43, 2/191 and 2/27 respectively, in order to mimic the physicochemical environment of the NASBA reaction. • 3. […] The residual activity of each of the T7 RNA polymerase, RNAse H or AMV-RT activities is then measured by adding 5 μl of enzymatic solution to 20 μl of solution S containing the reagents corresponding to each of the activities measured. […]
(§2) • 6. The residual activity of each mutant is expressed as percentage of the fraction of enzyme having not been preincubated and corresponding to 100% activity according to the following calculation: • ρN=slope obtained between 5 and 10 min for the enzyme not preincubated, • ρT=slope obtained between 5 and 10 min for the enzyme preincubated at various temperatures, with or without the presence of the polyol to be studied, and • percentage relative activity=% (ρT/ρN).

T7 RNA polymerase [6] = molecular target: T1, T7 RNA polymerase; assay: Residual T7 RNA polymerase activity after preincubation at various temperatures, with or without 0.4 M trehalose; type: biochemical; conditions: 15 minutes of preincubation at various temperatures
Protocol: FIG. 3A describes the residual activity of T7 RNA polymerase after 15 minutes of preincubation at various temperatures, with or without 0.4 M trehalose.
as §1, §2

AMV-RT = assay: Residual AMV-RT activity after preincubation at various temperatures, with or without 0.4 M trehalose; type: biochemical; conditions: 25 minutes of preincubation at various temperatures
Protocol: FIG. 3C describes the residual activity of AMV-RT after 25 minutes of preincubation at various temperatures, with or without 0.4 M trehalose.
as §1, §2

[7] = 3 minutes at 48° C., 0.7 M sucrose, 0.4 M trehalose

T1 sequence (P00573 whole entry): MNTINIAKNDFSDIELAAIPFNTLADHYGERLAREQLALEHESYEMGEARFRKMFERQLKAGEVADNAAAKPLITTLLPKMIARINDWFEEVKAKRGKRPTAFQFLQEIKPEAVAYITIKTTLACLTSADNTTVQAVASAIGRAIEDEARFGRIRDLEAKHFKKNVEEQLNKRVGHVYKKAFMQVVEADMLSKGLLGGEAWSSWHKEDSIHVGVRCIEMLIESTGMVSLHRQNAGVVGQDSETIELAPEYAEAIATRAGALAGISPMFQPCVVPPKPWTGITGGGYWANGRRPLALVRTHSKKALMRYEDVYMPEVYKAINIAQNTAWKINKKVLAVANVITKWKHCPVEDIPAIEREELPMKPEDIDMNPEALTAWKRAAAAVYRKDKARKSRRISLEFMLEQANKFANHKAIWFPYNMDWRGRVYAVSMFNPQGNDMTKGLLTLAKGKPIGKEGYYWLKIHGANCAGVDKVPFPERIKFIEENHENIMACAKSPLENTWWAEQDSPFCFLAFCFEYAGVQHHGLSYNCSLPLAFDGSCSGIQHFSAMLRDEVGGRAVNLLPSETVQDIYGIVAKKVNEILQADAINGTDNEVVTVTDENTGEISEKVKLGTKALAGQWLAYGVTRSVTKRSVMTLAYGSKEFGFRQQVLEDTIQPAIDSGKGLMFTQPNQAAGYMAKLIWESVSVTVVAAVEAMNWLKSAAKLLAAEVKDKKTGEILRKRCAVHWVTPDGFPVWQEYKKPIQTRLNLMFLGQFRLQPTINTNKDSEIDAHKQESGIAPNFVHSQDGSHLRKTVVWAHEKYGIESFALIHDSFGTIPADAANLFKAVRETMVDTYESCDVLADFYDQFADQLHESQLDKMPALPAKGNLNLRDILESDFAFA

| SMILES | ΔTm (T7 RNA polymerase [1]; read-out: ΔTm) | denaturation temperature of the enzyme (in words) (T7 RNA polymerase [1]) | thermostabilizing effect on the T7 RNA polymerase activity (in words) (T7 RNA polymerase [2]) | NASBA amplification at 46° C. (positive signals out of seven replicas) (HIV-1 type B transcript [3]) | T7 RNA polymerase activity preserved (T7 RNA polymerase [5]; [7]) | further results |
| --- | --- | --- | --- | --- | --- | --- |
| OC[C@H]1O[C@@H](O[C@H]2[C@H](O)[C@@H](O)C(O)O[C@@H]2CO)[C@H](O)[C@@H](O)[C@H]1O (stereo partly drawn) [Lactose, lactose] | 5.5 °C | very significantly increase the denaturation temperature of the enzyme | weak thermostabilizing power | at least four positive signals out of seven replicas |  |  |
| OC[C@H]1O[C@H](OC[C@H]2O[C@H](O[C@]3(CO)O[C@H](CO)[C@@H](O)[C@@H]3O)[C@H](O)[C@@H](O)[C@@H]2O)[C@H](O)[C@@H](O)[C@H]1O [Raffmose, raffinose] | 0.5 °C |  |  |  |  |  |
| OC[C@@H](O)[C@@H](O)[C@H](O)[C@@H](O)CO [Sorbitol, sorbitol] | 0.9 °C | very significantly increase the denaturation temperature of the enzyme | greatest thermostabilizing effect | at least four positive signals out of seven replicas | 100% | sensitivity (percentage of positive signals relative to total replicates) (HIV-1 type B transcript [4]): 100%; T7 RNA polymerase activity preserved (T7 RNA polymerase [5]; 3 minutes at 49° C.): 100% |
| OC[C@H]1O[C@H](O[C@H]2O[C@H](CO)[C@@H](O)[C@H](O)[C@H]2O)[C@H](O)[C@@H](O)[C@@H]1O [Trehalose, trehalose] |  |  |  |  | 100% | thermostabilizing effect on RNAse H activity (in words) (RNAse H): thermostabilizing effect; thermostability of T7 RNA polymerase (in words) (T7 RNA polymerase [6]): makes it possible to render it more thermostable; thermostabilizing effect on AMV-RT activity (in words) (AMV-RT): thermostabilizing effect |
| O=C(CO)[C@@H](O[C@H]1O[C@H](CO)[C@@H](O)[C@H](O)[C@H]1O)[C@H](O)[C@H](O)CO [D-Turanose] |  |  |  |  |  | ΔTm (T7 RNA polymerase [1]): −4.4 °C |
| OC[C@H]1O[C@@](CO)(O[C@H]2O[C@H](CO)[C@@H](O)[C@H](O)[C@H]2O)[C@@H](O)[C@@H]1O [Sucrose, sucrose] | 5.8 °C | very significantly increase the denaturation temperature of the enzyme |  | at least four positive signals out of seven replicas | 100% |  |
